{"source": "patent US20070037253A1", "about": "“Methods and compositions for treatment of arthritis and cancer” (priority 2003, published 2007)", "key": {"[1]": {"biological_target": "T1, purified human synovial sPLA2 (human Type IIA sPLA2) (Homo sapiens, UniProt P14555)", "T1 construct": "purchased Cayman Chemicals, USA", "T1 sequence (P14555 21-144)": "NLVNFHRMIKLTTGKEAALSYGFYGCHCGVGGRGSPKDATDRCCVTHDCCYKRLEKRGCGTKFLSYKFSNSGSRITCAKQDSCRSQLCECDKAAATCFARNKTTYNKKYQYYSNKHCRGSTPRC", "test": "sPLA2 inhibition, 3H-arachidonate-labelled E. coli membrane assay", "type": "biochemical", "conditions": "fixed peptide concentration (5 μM); 3H-labelled E. coli membrane assay; read-out: % Inhibition (mean ± SD)", "description": "In brief, [^3H] arachidonate-labeled E. coli membranes (0.005 mCi/mL; 5.8 μCi/μmol, NEN) were used as substrate, and 100 mM Tris-HCl—25 mM CaCl2, pH 7.5 solution as an assay buffer. The reaction mixture contained 20 μL of substrate, 0.85 pmole of purified human synovial sPLA2 (human Type IIA sPLA2, Cayman Chemicals, USA), and an increasing concentrations of the family of synthetic peptides derived from the sequence of PIP. The final volume of the reaction mixture was adjusted to 250 μL with an assay buffer. After incubation of the mixture (37° C., 1 h) and termination of the reaction with 750 μL of chilled PBS containing 1% BSA, microfuge tubes containing the samples were centrifuged (10,000 g at 4° C. for 15 min), and 500 μL aliquots of the supernatant taken to measure the amount of [^3H]-labeled arachidonate released from the E. coli membrane using liquid scintillation counting (Multipurpose Scintillation Counter LS 6500; Beckman, USA). As controls, sPLA2 was pre-incubated with the assay buffer alone. All samples, including controls, were performed in triplicate and plotted as the percentage inhibition relative to negative controls.\nA sigmoid dose response curve was generated to allow calculation of the IC50 values. All samples were performed in triplicate. Results were analyzed by nonlinear regression with GraphPad Prism (version 2.01) and expressed as the percentage of inhibition relative to control values."}, "MMP-9": {"biological_target": "T2, MMP-9 (Oryctolagus cuniculus, UniProt P41246)", "T2 construct": "endogenous in cells; host or cells: HIG-82 rabbit synoviocytes (ATCC CRL-1832), IL-1β-induced, culture supernatant", "T2 sequence (P41246 107-707)": "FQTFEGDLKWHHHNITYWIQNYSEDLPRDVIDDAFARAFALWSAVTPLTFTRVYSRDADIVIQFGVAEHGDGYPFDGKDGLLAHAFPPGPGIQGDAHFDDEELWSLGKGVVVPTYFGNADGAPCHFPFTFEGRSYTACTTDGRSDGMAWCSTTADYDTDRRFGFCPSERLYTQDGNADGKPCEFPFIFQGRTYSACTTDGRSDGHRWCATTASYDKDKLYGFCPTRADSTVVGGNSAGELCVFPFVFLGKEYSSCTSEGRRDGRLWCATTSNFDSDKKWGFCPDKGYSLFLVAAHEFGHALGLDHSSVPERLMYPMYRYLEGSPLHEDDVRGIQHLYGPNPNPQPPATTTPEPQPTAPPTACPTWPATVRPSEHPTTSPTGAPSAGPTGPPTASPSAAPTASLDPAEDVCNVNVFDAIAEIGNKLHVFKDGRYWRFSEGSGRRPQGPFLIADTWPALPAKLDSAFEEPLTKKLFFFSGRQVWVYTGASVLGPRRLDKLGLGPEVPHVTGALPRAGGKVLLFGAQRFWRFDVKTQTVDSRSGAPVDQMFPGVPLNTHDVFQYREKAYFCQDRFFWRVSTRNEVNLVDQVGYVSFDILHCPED", "test": "Gelatin zymography of HIG-82 culture supernatant pre-incubated with inhibitors (FIG. 4A)", "type": "biochemical, rabbit", "conditions": "APMA-activated HIG-82 supernatant, 5 μM peptide, 1 h at 25° C.", "method": "(§1) Gelatinase activity in the supernatants from cells induced with IL-1β (5 ng) for 48 h was analyzed by gelatin zymography. (A) Supernatants (activated with final 1 mM APMA at 30° C. for 30 min) were pre-incubated with various inhibitors. (5 μM peptides or 1-2 μM Calbiochem MMP inhibitor II) for 1 h at 25° C. prior to zymographic analyses—Lane 1, without activation (no inhibitor); Lane 2, with activation (no inhibitor); Lanes 3-8, with activation plus inhibitor: 3, P-NT-II; 4, PIP [59-67] monomer; 5, PIP [57-67] dimer; 6, PIP [59-67] dimer; 7 and 8, positive control MMP Inhibitor II (Calbiochem) at 1 and 2 μM concentrations. (B) Rabbit synovial fibroblasts were stimulated by IL-1β in the presence or absence of 1-10 μM of PIP [59-67] dimer for 48 h. Culture supernatants were concentrated by centrifugation (Centricon centrifugal filter devices, M.W. cutoff 30,000) and activated with APMA (1 mM final) before measurement of gelatinase activity by gelatin zymography. Lanes: 1 (−peptide−APMA); 2 (−peptide+APMA); 3 (+1 μM peptide+APMA); 4 (+5 μM peptide+APMA); 5 (+7.5 μM peptide+APMA); 6 (+10 μM peptide+APMA). […]"}, "MMP-2": {"biological_target": "T3, MMP-2 (Oryctolagus cuniculus, UniProt P50757)", "T3 construct": "endogenous in cells; host or cells: HIG-82 rabbit synoviocytes (ATCC CRL-1832), IL-1β-induced, culture supernatant", "T3 sequence (P50757 110-662)": "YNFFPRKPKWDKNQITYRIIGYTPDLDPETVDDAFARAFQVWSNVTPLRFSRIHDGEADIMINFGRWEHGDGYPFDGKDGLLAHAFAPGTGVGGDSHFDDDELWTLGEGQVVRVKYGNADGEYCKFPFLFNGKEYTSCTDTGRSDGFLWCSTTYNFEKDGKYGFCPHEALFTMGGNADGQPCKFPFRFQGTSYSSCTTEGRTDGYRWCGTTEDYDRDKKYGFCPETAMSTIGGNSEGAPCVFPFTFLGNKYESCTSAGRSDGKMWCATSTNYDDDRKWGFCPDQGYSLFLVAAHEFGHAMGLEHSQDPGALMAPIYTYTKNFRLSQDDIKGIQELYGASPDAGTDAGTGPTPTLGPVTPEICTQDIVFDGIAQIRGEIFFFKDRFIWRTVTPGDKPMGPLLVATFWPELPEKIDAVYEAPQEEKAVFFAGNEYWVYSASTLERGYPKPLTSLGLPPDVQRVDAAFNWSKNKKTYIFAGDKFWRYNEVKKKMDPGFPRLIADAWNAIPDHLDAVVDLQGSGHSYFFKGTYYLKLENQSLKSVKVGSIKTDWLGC", "test": "Gelatin zymography of HIG-82 culture supernatant pre-incubated with inhibitors (FIG. 4A)", "type": "biochemical, rabbit", "conditions": "APMA-activated HIG-82 supernatant, 5 μM peptide, 1 h at 25° C.", "method": "as §1"}, "[2]": {"biological_target": "T4, MMP-1, secreted from IL-1 β-stimulated rabbit synovial fibroblasts (Oryctolagus cuniculus, UniProt P13943)", "T4 construct": "endogenous in cells; host or cells: HIG-82 rabbit fibroblast-like synoviocytes (ATCC CRL-1832)", "T4 sequence (P13943 99-468)": "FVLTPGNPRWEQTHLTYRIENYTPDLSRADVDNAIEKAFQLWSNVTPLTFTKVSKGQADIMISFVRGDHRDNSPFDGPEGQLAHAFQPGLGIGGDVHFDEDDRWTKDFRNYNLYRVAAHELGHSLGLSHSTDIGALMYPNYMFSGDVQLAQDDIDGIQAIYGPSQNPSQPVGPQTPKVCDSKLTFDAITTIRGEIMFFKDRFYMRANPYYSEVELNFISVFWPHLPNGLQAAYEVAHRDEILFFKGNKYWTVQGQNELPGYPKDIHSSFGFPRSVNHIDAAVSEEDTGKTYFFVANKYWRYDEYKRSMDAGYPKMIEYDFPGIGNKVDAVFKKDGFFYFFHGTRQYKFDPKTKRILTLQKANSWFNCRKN", "test": "Secreted MMP-1 activity of IL-1β-stimulated rabbit synovial fibroblasts", "type": "cell-based", "method": "FLSC culture and inhibition of extracellular MMP activity: All experiments were performed on HIG-82 rabbit fibroblast-like synoviocytes (FLSCs) obtained from American Type Culture Collection (Manassas, Va.; catalogue No. CRL-1832). FLSCs were grown in Ham's F-12 medium containing 10% fetal bovine serum (FBS) and 1% penicillin/streptomycin, as recommended by the supplier. For experimental purposes, FLSCs were seeded into 12-well plates, grown to near confluence, and then serum starved (Ham's F-12 without FBS or penicillin/streptomycin) for 16 h. After serum starvation of FLSCs, supernatants were removed and replaced with fresh Ham's F-12 medium for 60 min at 37° C./5% CO2 before incubation for 2 h with various concentrations (1-10 μM) of test inhibitor peptides: P-NT.II, PIP [59-67] monomer and dimer. FLSCs were then stimulated for 24 h with IL-1β (10 ng/mL), and the supernatants concentrated by centrifugation in Centricon centrifugal filter devices (M.W. cutoff 30,000) for 35 min at 5000 rpm at 4° C. After activation with APMA (1 mM final concentration), the samples were measured for MMP-1 activity using BIOMOL AK-404 QuantiZyme Assay system, and for MMP-2 and -9 activities by gelatin zymography."}}, "note": "Where a SMILES comes first, the peptide text is derived from it."}
{"smiles": "CC[C@H](C)[C@H](NC(=O)[C@H](CC(=O)O)NC(=O)[C@@H](N)C(C)C)C(=O)N[C@@H](Cc1c[nH]cn1)C(=O)N[C@H](C(=O)N[C@@H](Cc1c[nH]c2ccccc12)C(=O)N[C@@H](CC(=O)O)C(=O)NCC(=O)N[C@H](C(=O)N[C@H](C(=O)N[C@@H](CC(=O)O)C(=O)N[C@H](C(=O)N[C@@H](Cc1c[nH]cn1)C(=O)N[C@H](C(=O)N[C@@H](Cc1c[nH]c2ccccc12)C(=O)N[C@@H](CC(=O)O)C(=O)NCC(=O)N[C@H](C(=O)O)C(C)C)C(C)C)[C@@H](C)CC)C(C)C)C(C)C)C(C)C", "note": "[PIP [59-67] dimer] (H-VDIHVWDGVVDIHVWDGV-OH; N-terminus and C-terminus assumed)", "values": [{"measurement": "inhibition at 5 µM", "setting": "[1]", "result": "74.5 ± 4.21", "unit": "%"}, {"measurement": "MMP-9 gelatinase activity vs control", "setting": "MMP-9", "result": "insignificant"}, {"measurement": "MMP-2 gelatinase activity vs control", "setting": "MMP-2", "result": "insignificant"}, {"measurement": "enzyme activity of secreted MMP-1", "setting": "[2]", "result": "markedly inhibited"}]}
